# Measured values: article PMC4853715, “Design, Synthesis and Antitumor Activity of Novel link-bridge and B-Ring Modified Combretastatin A-4 (CA-4) Analogues as Potent Antitubulin Agents” (Scientific Reports, 2016)
# Tests used:
# [1] = test system: HepG2, Hela, MCF-7, A549, HT-29 and SSC-4 cell lines; assay: MTT assay, panel of six cancer cell lines; type: cell-based; conditions: Homo sapiens; range over six cell lines; read-out: IC50 values against a panel of cancer cell lines
# Method: The in vitro anticancer activities of the prepared compounds against HepG2, Hela, MCF-7, A549, HT-29 and SSC-4 cell lines were evaluated as described in the literature. Target tumor cells were grown to log phase in DMEM medium supplemented with 10% fetal bovine serum. After reaching a dilution of 1 × 10^5 cells Ml^−1 with the medium, 100 μL of the obtained cell suspension was added to each well of 96-well culture plates. Subsequently, incubation was performed at 37 °C in 5% CO2 atmosphere for 12 h before the cytotoxicity assessment. Tested samples at preset concentrations were added to 6 wells with CA-4 being employed as a positive reference. After 48 h exposure period, 25 μL of PBS containing 2.5 mg mL^−1 of MTT (Sigma, USA) was added to each well. After 4 h, the medium was replaced by 150 μL DMSO to dissolve the purple formazan crystals produced. The absorbance at 570 nm of each well was measured with Synergy™ 2 Multi-Mode Microplate Reader. Cell viability (%) was calculated using the following equation: cell viability (%) = (Atreatment/Acontrol) × 100%. The data represented the mean of three independent experiments in triplicate and were expressed as means ± SD.
# A549 cells = assay: Detection of intracellular ROS (DCFH-DA flow cytometry); type: cell-based, human; conditions: A549, versus control cells and positive control
# Method: Intracellular ROS production was measured by use of active oxygen species assay kit (K0111, Beyotime, China). […] After 30 min of incubation in the darkness, cells were washed with DMEM for three times, and then fluorescent intensity was measured by the flow cytometer with excitation and emission wavelengths of 488 and 525 nm, respectively.
# [2] = test system: Bax, PARP, Bcl-2, Caspase3 in A549 cells; assay: Western blot of apoptosis-related proteins; type: cell-based, human
# Method: (§1) Total cellular proteins are extracted with lysis buffer (50 mmol/l Tris [pH 7.4], 150 mmol/l NaCl, 1% Triton X-100, 1% deoxycholicphenyl methylsulfonyl fluoride, 1 mg/ml aprotinin, 5.0 mmol/l sodium pyrophosphate, […] leupeptin, 0.1 mmol/l phenylmethylsulfonyl fluoride, and 1 mmol/l DTT). Protease inhibitors are added immediately before use. The cells are harvested at the end of treatment and extracted for western blot analysis as described previously. After washing twice with PBS, the cultured cells were collected and lysed in lysis buffer (100 mmol/l Tris-Cl, pH 6.8, 4% (m/v) SDS, 20% (v/v) glycerol, 200 mmol/l β-mercaptoethanol, 1 mmol/l phenylmethylsulfonyl fluoride, and […] aprotinin). The lysates were centrifuged at 13,000 × g for 15 min at 4 °C. The concentration of total proteins was measured using the BCA assay method with Varioskan spectrofluorometer and spectrophotometer (Thermo) at 562 nm. Protein samples were separated with 15% SDS-PAGE and transferred onto the polyvinyldifluoride (PVDF) membranes (Millipore, IPVH 304 F0). Immune complexes were formed by incubation of proteins with primary antibodies overnight at 4 °C followed by IRDye^TM 800 conjugated second antibody for 1 hour at 37 °C. Immunoreactive protein bands were detected with an Odyssey Scanning System (LI-COR Biosciences, 9201-03). Antibodies: primary antibodies of cyclin B1, Cdc2, p-Cdc2 (Thr14/Tyr15), Cdc25C, and p21WAF1/Cip1 were all obtained from EPITOMICS (Abcam, Cambridge, UK); antibodies of Bax and Bcl-2 were obtained from Bioworld (Bioworld Technology, Inc., MN, USA); antibodies of caspase-3, and PARP were all obtained from Santa Cruz (Santa Cruz, CA); and antibody of GAPDH was from Boster (Wuhan, China). The secondary antibodies peroxidase-conjugated affinipure Goat Anti-Mouse IgG (H + L) (111-035-003), peroxidase-conjugated affinipure Goat Anti-Rabbit IgG (H + L) (111-035-003) were obtained from Jackson Immuno Research Laboratories, Inc. (USA).
# [3] = test system: Cyclin B1, Cdc25c, Cdc2, P21 in A549 cells; assay: Western blot of G2/M-related proteins; type: cell-based, human; conditions: A549, 0.5-2.0 μM 48 h; 3.0 μM 12-48 h
# Method: as §1
# [4] = test system: Tubulin isolated from porcine brain tissue; assay: Tubulin polymerization assay (kit, absorbance 340 nm); type: biochemical; conditions: 37 °C
# Method: Tubulin polymerization was determined with the tubulin polymerization assay kit (Cytoskeleton, Denver, CO which was purchased from Cytoskeleton, Beyotime, China. Tubulin isolated from porcine brain tissue was used in this commercial kit.) It is based on the principal that light is scattered by microtubules to an extent that is proportional to the concentration of the microtubule polymer. Compounds that interact with tubulin will alter the polymerization of tubulin, and this can be detected using a spectrophotometer. Tubulin polymerization dynamics was monitored through measuring the change of absorbance at 340 nm every 2 min for 30 min at 37 °C on a spectrophotometer (Perkin-Elmer).
# [5] = Body weight of treated xenograft mice; type: in vivo, BALB/c nude mice; conditions: whole treatment period
# Method: Male BALB/c nude mice, five weeks old and weighing 18–22 g, were supplied by Shanghai Laboratory Animal Limited Company. The mice were raised in air-conditioned rooms under controlled lighting (12 h light-dark cycle at 24 °C) and were fed with standard laboratory food and water ad libitum. Before injection into the mice, the A549 cells were harvested by trypsinization and washed three times with cold serum-free medium and then injected in a total volume of 0.1 mL using a 1 mL latex-free syringe (BD) within 30 min of harvest. Mice were inoculated subcutaneously with A549 cells (5.0 × 10^6) on their shoulders. […] The control group received 0.9% normal saline. Tumor size was measured once every 2 days in two per-pendicular dimensions with Vernier calipers and converted to tumor volume (TV) using the formula: (ab^2)/2, where a and b refer to the longer and shorter dimensions, respectively. The body weight of the animals was measured twice a week to assess toxicity of the treatments at the same time as the tumor dimension measurement and the mortality was monitored daily. After the treatments for eight weeks, the animals were euthanized by cervical dislocation. This study conformed to the Guide for the Care and Use of Laboratory Animals as published by the US National Institutes of Health and was approved by the Institutional Ethics Review Board of Nanjing University.
structure (smiles),measurement,setting,value
COc1cc(/C=N/NC(=O)c2cn(Cc3ccccc3)c3ccccc23)cc(OC)c1OC [Compound 7],IC50,[1],0.08 to 35.6 µM
same,intracellular ROS production,A549 cells,induced the production of significant amounts of ROS
same,level of Bax,"[2]; A549, 0.5, 1 and 2 μM, 48 h",efficiently up-regulated
same,"level of anti-apoptotic proteins (Bcl-2, Bcl-xl)","[2]; A549, 0.5, 1 and 2 μM, 48 h",down-regulated
same,cleaved caspase-3 and PARP,"[2]; A549, 48 h",up regulation
same,cdc25c expression,[3],down-regulated in a dose-dependent and time-dependent manner
same,cyclinB1 expression,[3],down-regulated in a dose-dependent and time-dependent manner
same,p21 expression,[3],increased
same,tubulin polymerization (in words),[4]; 1.0 μM,slightly inhibiting
same,tubulin polymerization (in words),[4]; 5.0 μM,nearly completely blocked
same,body weight changes during treatment,[5],no significant weight changes
